Where “and” joins values, the source holds several entries; their conditions need not be identical. Identical values can stand only once.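 Results reflect a 48-hour exposure of cells in 96-well plates to compound at five concentrations. GI50 = concentration required for 50% inhibition of growth. TGI denotes the concentration required for complete inhibition of growth.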
What was measured:
Assay in all cases: growth of human tumour cells (NCI), 48 h
CAKI-1 renal = system: CAKI-1 renal
NCI-H460 lung = system: NCI-H460 lung
HOP-92 NSCLC = system: HOP-92 NSCLC
SK-MEL-28 melanoma = system: SK-MEL-28 melanoma
T-47D breast = system: T-47D breast
SK-MEL-5 melanoma = system: SK-MEL-5 melanoma
SK-MEL-2 melanoma = system: SK-MEL-2 melanoma
TK-10 renal = system: TK-10 renal
SF-268 CNS = system: SF-268 CNS
MALME-3M melanoma = system: MALME-3M melanoma

Row | SMILES | GI50 (CAKI-1 renal) [µM] | TGI (CAKI-1 renal) [µM] | GI50 (NCI-H460 lung) [µM] | TGI (NCI-H460 lung) [µM] | GI50 (HOP-92 NSCLC) [µM] | TGI (HOP-92 NSCLC) [µM] | GI50 (SK-MEL-28 melanoma) [µM] | TGI (SK-MEL-28 melanoma) | GI50 (T-47D breast) [µM] | TGI (T-47D breast) [µM] | GI50 (SK-MEL-5 melanoma) [µM] | TGI (SK-MEL-5 melanoma) | GI50 (SK-MEL-2 melanoma) [µM] | TGI (SK-MEL-2 melanoma) | GI50 (TK-10 renal) [µM] | TGI (TK-10 renal) [µM] | GI50 (SF-268 CNS) [µM] | TGI (SF-268 CNS) | TGI (MALME-3M melanoma) | GI50 (MALME-3M melanoma) [µM]
1 | COc1cc(C(=O)c2ccc3c(c2)OCO3)cc(OC)c1OC | 1.88 | > 27.4 | 2.55 | > 100 | 2.48 | > 100 | 3.69 | > 100 µM | 5.3 | > 100 | 1.88 | > 21.5 µM | 2.53 | > 100 µM | 4.44 | > 100 | 5.56 | > 100 µM | – | –
2 | O=c1cccccc1NCCOCCNc1cccccc1=O | – | > 100 | – | > 100 | – | – | – | > 100 µM | – | – | – | > 100 µM | – | > 100 µM | – | > 100 | – | > 100 µM | > 100 µM | –
3 | Oc1ccccc1-c1nn(CNc2cccc(Cl)c2)c(=S)o1 | 65.4 | > 100 | 20.6 | > 100 | 1.86 | 31.7 | – | – | 28.7 | > 100 | 89.2 | > 100 µM | > 100 | > 100 µM | 13.1 | 86.3 | 59.4 | > 100 µM | – | –
4 | COc1ccc(C(=O)C(c2ccc(OC)cc2)C2(O)C(=O)Nc3ccccc32)cc1 (stereo unspecified) | – | > 100 | – | – | – | > 100 | – | > 100 µM | – | – | – | – | – | > 100 µM | – | > 100 | – | > 100 µM | > 100 µM | –
5 | O=c1/c(=C/c2cccc([N+](=O)[O-])c2)sc2nc3ccccc3n12 | – | – | – | > 100 | – | – | – | > 100 µM | – | – | – | – | – | > 100 µM | – | > 100 | – | > 100 µM | > 100 µM | –
6 | CN(C)c1ccc(N2Cc3ccccc3OC3=C2C(=O)c2c(O)ccc(O)c2C3=O)cn1 | – | – | 1.28 | 3.67 | 0.2 | 0.467 | 0.275 | 0.762 µM | 0.258 | 1.27 | 0.722 | 2.01 µM | 0.541 | 1.49 µM | 0.348 | 0.908 | 0.37 | 1.59 µM | 0.495 µM | 0.218
7 | Cc1cc(O)cc2oc(=O)c3c(O)cc(O)cc3c12 | – | 90 | – | 30.8 | – | 76.3 | – | > 100 µM | – | – | – | > 100 µM | – | > 100 µM | – | > 100 | – | 76.5 µM | > 100 µM | –
8 | COC(=O)C1=C(O)c2cc(OC)c(OC)c(OC)c2[C@H](c2cc(OC)c(OC)c(OC)c2)C1C(=O)OC (stereo partly specified) | – | > 100 | – | > 100 | – | 69.3 | – | > 100 µM | – | – | – | > 100 µM | – | – | – | > 100 | – | > 100 µM | > 100 µM | –
9 | CCOC(=O)/C(O)=C(/c1n[nH]c(=O)c2ccccc12)[N+](=O)[O-] | – | – | – | > 100 | – | > 100 | – | > 100 µM | – | – | – | > 100 µM | – | > 100 µM | – | > 100 | – | > 100 µM | > 100 µM | –
10 | CC1(C)COC(C23C4C5C2C2C3C4C52I)=N1 (stereo unspecified) | – | > 100 | – | > 100 | – | > 100 | – | > 100 µM | – | – | – | > 100 µM | – | – | – | > 100 | – | > 100 µM | > 100 µM | –
11 | [O-]c1c2c(nn1-c1ccccc1)c1ccccc1c[n+]2Cc1ccccc1 | – | – | – | > 100 | – | > 100 | – | > 100 µM | – | – | – | > 100 µM | – | > 100 µM | – | > 100 | – | > 100 µM | > 100 µM | –
12 | CC(=O)[CH-]C(=O)c1ccccc1.CC(=O)[CH-]C(=O)c1ccccc1.CC[O-].CC[O-].[Zr+4] | 62.8 | > 100 | > 100 | > 100 | – | – | > 100 | > 100 µM | – | – | > 100 | > 100 µM | > 100 | > 100 µM | – | – | > 100 | > 100 µM | > 100 µM | > 100
13 | CCCCCCCCCCCCCC(=O)O[C@H]1CC[C@H](NC(=O)[C@H](OC)[C@H](O)[C@@H](O)[C@H](O)/C=C/C(C)C)C(=O)NC1 | – | – | – | – | 0.554 | 4.12 | – | 10.8 µM and 21.6 µM | – | > 100 | – | 1.37 µM and 0.25 µM | – | 51.2 µM and 9.49 µM | – | – | – | 18.8 µM and 22.5 µM | 7.97 µM and 38.7 µM | –
14 | N#C/C(=C\c1ccc(-c2ccc(Cl)cc2)o1)C(=O)Nc1ncc(Cc2ccc(Cl)cc2)s1 | 1.63 | 3.46 | 0.983 | 2.46 | 1.97 | 7.11 | – | – | 1.91 | 5.2 | 2.51 | 7.41 µM | 3.26 | 12.9 µM | 2 | 3.71 | 2.68 | 19.8 µM | – | –
15 | O=S(=O)(O)O.[NH-]C1CCCCC1[NH-].[Pt+2] (stereo unspecified) | – | – | 41 | > 100 | 56.7 | > 100 | > 100 | > 100 µM | – | – | 42.3 | > 100 µM | > 100 | > 100 µM | > 100 | > 100 | > 100 | > 100 µM | > 100 µM | 50.2
16 | O=S1c2ccccc2N=C(c2ccc3ccccc3c2)CC1C1=CC=CCC1 (stereo unspecified) | – | 29.6 | – | 54.5 | – | – | – | 33.1 µM | – | – | – | 30.4 µM | – | 40.5 µM | – | 51.7 | – | > 100 µM | 62.3 µM | –
17 | Cc1cc(NS(=O)(=O)c2ccc(N=Nc3cc(N=Nc4ccc(S(=O)(=O)Nc5cc(C)nc(C)n5)cc4)c4c(NC(=O)C(Cl)Cl)cccc4c3OC(=O)C(Cl)Cl)cc2)nc(C)n1 (tested in a mixture with another compound) | – | 78.6 | – | > 100 | – | 59.2 | – | 52.2 µM | – | – | – | 10.5 µM | – | 81.1 µM | – | 88.1 | – | 98.3 µM | 40.8 µM | –
18 | Cc1c(Cl)ccc2c1NC(=O)C2(O)C(C(=O)c1ccccc1)c1ccccc1 (stereo unspecified) | – | > 100 | – | > 100 | – | – | – | > 100 µM | – | – | – | 60 µM | – | > 100 µM | – | > 100 | – | > 100 µM | > 100 µM | –
19 | C[n+]1c(/C=C\c2ccc(Cl)cc2)ccc2ccccc21 | 66.6 | > 100 | 32.7 | > 100 | – | – | 13.6 | 54.3 µM | 21.8 | > 100 | 5.56 | 18 µM | 21 | 50.3 µM | > 100 | > 100 | 29.8 | > 100 µM | 36.8 µM | 11.9
